{"source": "patent US20230226227A1", "about": "“PROSTATE SPECIFIC MEMBRANE ANTIGEN (PSMA) LIGANDS AND USES THEREOF” (ADVANCED ACCELERATOR APPLICATIONS (ITALY) SRL, priority 2019, published 2023)", "key": {"[1]": {"experiment": "Plasma protein binding by ultrafiltration, mouse plasma", "format": "in vitro ADME", "method": "(§1) Plasma protein binding of PSMA-R2 and ^175Lu-PSMA-R2 has been determined by ultrafiltration method, after incubation of the compounds in human, mouse, rat and minipig plasma at two different concentrations: 1 and 5 µg/mL."}, "[2]": {"experiment": "Plasma protein binding by ultrafiltration, rat plasma", "format": "in vitro ADME", "details": "read-out: fu (%) fraction unbound", "method": "as §1"}, "[3]": {"experiment": "Plasma protein binding by ultrafiltration, human plasma", "format": "in vitro ADME", "details": "human plasma", "method": "as §1"}, "[4]": {"experiment": "In vitro stability in plasma (human)", "format": "in vitro ADME", "details": "37° C., after 2 hours", "method": "Stability of PSMA-R2 ligand was assessed in vitro after incubation with plasma from four different species (mouse, rat, mini-pig and human). PSMA-R2 was incubated at 37° C. in the different matrices, at a final concentration of 10 µg/mL, for 30, 60 and 120 minutes. The samples were analyzed by LC-MS/MS method."}, "[5]": {"experiment": "Plasma protein binding by ultrafiltration, minipig plasma", "format": "in vitro ADME", "details": "read-out: fu (%) fraction unbound", "method": "as §1"}, "[6]": {"experiment": "In vivo distribution in healthy CD-1 mice", "set-up": "species or system CD-1 healthy mice", "method": "In vivo distribution studies were performed in CD-1 healthy mice using Ga-labelled PSMA-R2, which was administered intravenously at a dose of 120-150 µCi (4.44 - 5.55 MBq). At specific time points after intravenous injection, animals (3 or 4/group) were sacrificed, organs collected, weighted and evaluated in a gamma counter."}, "[7]": {"system": "PC-3 PSMA positive and PSMA negative tumor xenografts", "experiment": "In vivo distribution in tumor models (PSMA positive PIP and negative Flu xenografts)", "set-up": "species or system athymic nude male mice", "details": "for Salivary glands uptake: 0.5 h post injection; for Kidney uptake / Tumor uptake / Tumor-to-kidney ratio: 1 h post injection", "method": "Athymic nude male mice bearing the PC-3 PSMA positive and PSMA negative tumor xenografts were injected with approximately 4.5 MBq of ^68Ga-PSMA-R2, and subsequently assessed for biodistribution and imaging studies. At 4 time points (30 min, 1 h, 2 h and 4 h) post injection (p.i.), tumor and organ uptake was determined using a gamma-counter. To assess receptor-specificity additional groups of animals were coinjected with an excess of unlabeled PSMA-R2 (40 nmol).\nThe same study was performed with ^68Ga-PSMA-cpd 2, a comparative compound of the following formula: […]"}, "[8]": {"system": "PC3-PIP (PSMA positive) tumor", "experiment": "In vivo efficacy in PC3-PIP PSMA positive model", "set-up": "species or system mice", "details": "single injection of 111 MBq; p<0.001", "method": "An efficacy study was conducted in a prostate cancer model using Lu-labelled PSMA-R2).\nMice bearing PC3-PIP (PSMA positive) tumor were injected once with 111 MBq of ^177Lu-PSMA-R2, ^177Lu-PSMA-617, included as reference compound, or with saline (control).\nTumor volume is expressed either as an absolute value (mm^3) or relatively to the volume measured at the time of the first injection."}, "[9]": {"details": "1 µg/mL, read-out: fu (%) fraction unbound"}, "[10]": {"details": "5 µg/mL, read-out: fu (%) fraction unbound"}, "[11]": {"details": "1 and 5 µg/mL, read-out: Unbound fraction, range over labelled and unlabelled form"}}}
{"smiles": "O=C(O)CCC(NC(=O)NC(CCCCN(Cc1ccc(Br)cc1)C(=O)CCCCCNC(=O)CN1CCN(CC(=O)O)CCN(CC(=O)O)CCN(CC(=O)O)CC1)C(=O)O)C(=O)O", "note": "(stereo not shown) [PSMA-R2]", "values": [{"measurement": "fraction unbound at 1 µg/mL", "setting": "[1]; [9]", "value": "0.862 ± 0.111"}, {"measurement": "fraction unbound at 5 µg/mL", "setting": "[1]; [10]", "value": "0.727 ± 0.015"}, {"measurement": "fraction unbound", "setting": "[1]; [11]", "value": "0.7 to 0.86"}, {"measurement": "fraction unbound at 1 µg/mL", "setting": "[2]; 1 µg/mL", "value": "0.256 ± 0.018"}, {"measurement": "fraction unbound at 5 µg/mL", "setting": "[2]; 5 µg/mL", "value": "0.226 ± 0.011"}, {"measurement": "fraction unbound at 1 µg/mL", "setting": "[3]; [9]", "value": "0.299 ± 0.046"}, {"measurement": "fraction unbound at 5 µg/mL", "setting": "[3]; [10]", "value": "0.23 ± 0.005"}, {"measurement": "fraction unbound", "setting": "[3]; [11]", "value": "0.25 to 0.45"}, {"measurement": "recovery at 2 h, 10 µg/mL", "setting": "[4]", "value": 85, "unit": "%"}, {"measurement": "fraction unbound at 1 µg/mL", "setting": "[5]; 1 µg/mL", "value": "0.407 ± 0.043"}, {"measurement": "fraction unbound at 5 µg/mL", "setting": "[5]; 5 µg/mL", "value": "0.353 ± 0.085"}]}
{"smiles": "O=C(O)CCC(NC(=O)NC(CCCCN(Cc1ccc(Br)cc1)C(=O)CCCCCNC(=O)CN1CCN(CC(=O)O)CCN(CC(=O)O)CCN(CC(=O)O)CC1)C(=O)O)C(=O)O.[68Ga]", "note": "(stereo not shown) [^68Ga-PSMA-R2]", "values": [{"measurement": "Liver uptake", "setting": "[6]; 30 minutes after intravenous injection", "value": 0.74, "unit": "%"}, {"measurement": "Liver uptake", "setting": "[6]; 4 hours after intravenous injection", "value": 0.21, "unit": "%"}, {"measurement": "Radiotracer uptake in remaining organs (intestine, pancreas, muscle, bone)", "setting": "[6]; all time-points", "value": "Low"}, {"measurement": "Radiotracer uptake in blood, adrenals, lungs, thyroid", "setting": "[6]; earliest time-point (30 min), decreased rapidly later", "value": "slightly high"}, {"measurement": "Excretion route (uptake in kidneys and bladder)", "setting": "[6]; intravenous", "value": "excreted through the renal system"}, {"measurement": "Salivary glands uptake", "setting": "[7]", "value": "0.81% (0.5 h)"}, {"measurement": "Kidney uptake", "setting": "[7]", "value": "6% (1 h)"}, {"measurement": "Tumor uptake", "setting": "[7]", "value": "29% (1 h)"}, {"measurement": "Tumor-to-kidney ratio", "setting": "[7]", "value": "5 (1 h)"}]}
{"smiles": "O=C(O)CC[C@H](NC(=O)N[C@@H](CCCCN(Cc1ccc(Br)cc1)C(=O)CCCCNC(=O)CN1CCN(CC(=O)O)CCN(CC(=O)O)CCN(CC(=O)O)CC1)C(=O)O)C(=O)O.[68Ga]", "note": "[^68Ga-PSMA-cpd2, reference compound]", "values": [{"measurement": "Salivary glands uptake", "setting": "[7]", "value": "0.95% (0.5 h)"}, {"measurement": "Kidney uptake", "setting": "[7]", "value": "13% (1 h)"}, {"measurement": "Tumor uptake", "setting": "[7]", "value": "36% (1 h)"}, {"measurement": "Tumor-to-kidney ratio", "setting": "[7]", "value": "3 (1 h)"}]}
{"smiles": "O=C([O-])CN1CCN(CC(=O)[O-])CCN(CC(=O)NCC2CCC(C(=O)N[C@@H](Cc3ccc4ccccc4c3)C(=O)NCCCC[C@H](NC(=O)N[C@@H](CCC(=O)O)C(=O)O)C(=O)O)CC2)CCN(CC(=O)[O-])CC1.[177Lu+3]", "note": "(stereo partly shown) [^177Lu-PSMA-617, reference compound]", "values": [{"measurement": "Absolute tumor volume in comparison to control group", "setting": "[8]", "value": "significantly reduced"}, {"measurement": "Relative tumor volume in comparison to control group", "setting": "[8]", "value": "significantly reduced"}]}
{"smiles": "O=C([O-])CN1CCN(CC(=O)[O-])CCN(CC(=O)NCCCCCC(=O)N(CCCC[C@H](NC(=O)N[C@@H](CCC(=O)O)C(=O)O)C(=O)O)Cc2ccc(Br)cc2)CCN(CC(=O)[O-])CC1.[177Lu+3]", "note": "[^177Lu-PSMA-R2]", "values": [{"measurement": "Absolute tumor volume in comparison to control group", "setting": "[8]", "value": "significantly reduced"}, {"measurement": "Relative tumor volume in comparison to control group", "setting": "[8]", "value": "significantly reduced"}]}
